pIC50: −log10 of the molar value.
biological target: T1, Full length human recombinant HDAC6 protein (Homo sapiens, UniProt Q9UBN7); assay: In vitro histone deacetylase assay: enzymatic HDAC6 electrophoretic mobility shift assay; assay type: biochemical; conditions: 1 nM enzyme, 2 μM peptide substrate RHKK(Ac)-NH2, 25° C., 12 concentrations; read-out: Inhibitory Concentration (IC50) Values against HDAC6, Activity Range
T1 sequence (Q9UBN7 1-1215): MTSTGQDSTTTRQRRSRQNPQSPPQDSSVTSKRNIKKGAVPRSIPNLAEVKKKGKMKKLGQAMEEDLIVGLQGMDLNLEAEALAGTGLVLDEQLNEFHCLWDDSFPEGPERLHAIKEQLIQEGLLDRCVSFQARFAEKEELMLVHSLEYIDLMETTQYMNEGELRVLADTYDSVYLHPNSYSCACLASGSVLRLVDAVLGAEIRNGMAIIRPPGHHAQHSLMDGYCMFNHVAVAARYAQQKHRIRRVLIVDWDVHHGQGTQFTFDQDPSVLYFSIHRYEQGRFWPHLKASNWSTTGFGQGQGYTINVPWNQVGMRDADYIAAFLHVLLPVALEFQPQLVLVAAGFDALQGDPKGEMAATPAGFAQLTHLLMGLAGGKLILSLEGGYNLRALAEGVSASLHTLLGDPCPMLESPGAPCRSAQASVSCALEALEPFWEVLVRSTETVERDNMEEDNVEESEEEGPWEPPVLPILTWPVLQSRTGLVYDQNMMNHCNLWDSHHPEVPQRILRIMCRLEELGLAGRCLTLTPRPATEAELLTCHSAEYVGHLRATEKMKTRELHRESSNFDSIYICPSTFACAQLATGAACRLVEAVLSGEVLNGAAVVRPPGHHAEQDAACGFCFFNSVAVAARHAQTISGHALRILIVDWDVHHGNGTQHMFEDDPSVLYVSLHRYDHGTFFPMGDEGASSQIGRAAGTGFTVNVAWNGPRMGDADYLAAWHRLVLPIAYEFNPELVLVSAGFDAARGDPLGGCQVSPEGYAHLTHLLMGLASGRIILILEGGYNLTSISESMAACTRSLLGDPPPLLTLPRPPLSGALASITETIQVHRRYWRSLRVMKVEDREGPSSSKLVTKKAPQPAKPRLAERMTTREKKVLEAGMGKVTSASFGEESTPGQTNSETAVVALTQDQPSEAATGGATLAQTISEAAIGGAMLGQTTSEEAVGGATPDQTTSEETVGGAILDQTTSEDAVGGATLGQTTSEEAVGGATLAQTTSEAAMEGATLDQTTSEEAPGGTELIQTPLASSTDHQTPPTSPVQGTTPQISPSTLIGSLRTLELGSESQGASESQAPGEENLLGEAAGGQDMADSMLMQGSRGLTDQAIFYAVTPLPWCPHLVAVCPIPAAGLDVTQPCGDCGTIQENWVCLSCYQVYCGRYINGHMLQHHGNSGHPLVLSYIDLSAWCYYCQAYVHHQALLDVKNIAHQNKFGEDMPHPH

Structure (SMILES) | pIC50
C[C@@H]1CN(C(=O)C2(C)CCC2)Cc2ccc(C(=O)NO)cc2O1 [(R)-N-hydroxy-2-methyl-4-(1-methylcyclobutane-1-carbonyl)-2,3,4,5-tetrahydrobenzo[f][1,4]oxazepine-8-carboxamide] | ≥ 7.00
O=C(NO)c1ccc2c(c1)O[C@H](c1ccccc1)CN(C(=O)C1CCOCC1)C2 [(R)-N-hydroxy-2-phenyl-4-(tetrahydro-2H-pyran-4-carbonyl)-2,3,4,5-tetrahydrobenzo[f][1,4]oxazepine-8-carboxamide] | 6.30 to 7.00
COC[C@@H]1COc2cc(C(=O)NO)ccc2CN1C(=O)C1CCOCC1 [(R)-N-hydroxy-3-(methoxymethyl)-4-(tetrahydro-2H-pyran-4-carbonyl)-2,3,4,5-tetrahydrobenzo[f][1,4]oxazepine-8-carboxamide] | < 6.30
CC(C)[C@@H]1COc2cc(C(=O)NO)ccc2CN1C(=O)C1(C)CCC1 [(R)-N-hydroxy-3-isopropyl-4-(1-methylcyclobutane-1-carbonyl)-2,3,4,5-tetrahydrobenzo[f][1,4]oxazepine-8-carboxamide] | < 6.30
C[C@@H]1COc2cc(C(=O)NO)ccc2CN1C(=O)C1(C)CCC1 [(R)-N-hydroxy-3-methyl-4-(1-methylcyclobutane-1-carbonyl)-2,3,4,5-tetrahydrobenzo[f][1,4]oxazepine-8-carboxamide] | 6.30 to 7.00
CC1(C(=O)N2Cc3ccc(C(=O)NO)cc3O[C@H](c3ccccc3)C2)CCC1 [(R)-N-hydroxy-4-(1-methylcyclobutane-1-carbonyl)-2-phenyl-2,3,4,5-tetrahydrobenzo[f][1,4]oxazepine-8-carboxamide] | 6.30 to 7.00
C[C@@H](C(=O)N1CCOc2cc(C(=O)NO)ccc2C1)c1ccccc1 [(R)-N-hydroxy-4-(2-phenylpropanoyl)-2,3,4,5-tetrahydrobenzo[f][1,4]oxazepine-8-carboxamide] | < 6.30
O=C(NO)c1ccc2c(c1)OC[C@H](C(F)(F)F)N(C(=O)C1COC1)C2 [(R)-N-hydroxy-4-(oxetane-3-carbonyl)-3-(trifluoromethyl)-2,3,4,5-tetrahydrobenzo[f][1,4]oxazepine-8-carboxamide] | ≥ 7.00
O=C(NO)c1ccc2c(c1)OCCN(C(=O)[C@@H]1CCCOC1)C2 [(R)-N-hydroxy-4-(tetrahydro-2H-pyran-3-carbonyl)-2,3,4,5-tetrahydrobenzo[f][1,4]oxazepine-8-carboxamide] | ≥ 7.00
O=C(NO)c1ccc2c(c1)OC[C@H](C(F)(F)F)N(C(=O)C1CCOCC1)C2 [(R)-N-hydroxy-4-(tetrahydro-2H-pyran-4-carbonyl)-3-(trifluoromethyl)-2,3,4,5-tetrahydrobenzo[f][1,4]oxazepine-8-carboxamide] | ≥ 7.00
O=C(NO)c1ccc2c(c1)OCCN(C(=O)[C@@H]1CCOC1)C2 [(R)-N-hydroxy-4-(tetrahydrofuran-3-carbonyl)-2,3,4,5-tetrahydrobenzo[f][1,4]oxazepine-8-carboxamide] | ≥ 7.00
CC(C)[C@@H]1c2ccc(C(=O)NO)cc2OCCN1C(=O)C1COC1 [(R)-N-hydroxy-5-isopropyl-4-(oxetane-3-carbonyl)-2,3,4,5-tetrahydrobenzo[f][1,4]oxazepine-8-carboxamide] | < 6.30
CC(C)[C@@H]1c2ccc(C(=O)NO)cc2OCCN1C(=O)C1CCOCC1 [(R)-N-hydroxy-5-isopropyl-4-(tetrahydro-2H-pyran-4-carbonyl)-2,3,4,5-tetrahydrobenzo[f][1,4]oxazepine-8-carboxamide] | < 6.30
C[C@@H]1c2cc(C(=O)NO)ccc2OCCN1C(=O)C1(C)CCC1 [(R)-N-hydroxy-5-methyl-4-(1-methylcyclobutane-1-carbonyl)-2,3,4,5-tetrahydrobenzo[f][1,4]oxazepine-7-carboxamide] | ≥ 7.00
C[C@@H]1c2ccc(C(=O)NO)cc2OCCN1C(=O)C1(C)CCC1 [(R)-N-hydroxy-5-methyl-4-(1-methylcyclobutane-1-carbonyl)-2,3,4,5-tetrahydrobenzo[f][1,4]oxazepine-8-carboxamide] | < 6.30
C[C@@H]1c2cc(C(=O)NO)ccc2OCCN1C(=O)C1CCOCC1 [(R)-N-hydroxy-5-methyl-4-(tetrahydro-2H-pyran-4-carbonyl)-2,3,4,5-tetrahydrobenzo[f][1,4]oxazepine-7-carboxamide] | ≥ 7.00

Structure (SMILES) | pIC50
C[C@@H]1c2ccc(C(=O)NO)cc2OCCN1C(=O)C1CCOCC1 [(R)-N-hydroxy-5-methyl-4-(tetrahydro-2H-pyran-4-carbonyl)-2,3,4,5-tetrahydrobenzo[f][1,4]oxazepine-8-carboxamide] | < 6.30
O=C(NO)c1ccc2c(c1)OC[C@H](Cc1ccccc1)N(C(=O)C1CCOCC1)C2 [(S)-3-benzyl-N-hydroxy-4-(tetrahydro-2H-pyran-4-carbonyl)-2,3,4,5-tetrahydrobenzo[f][1,4]oxazepine-8-carboxamide] | ≥ 7.00
CC[C@H]1COc2cc(C(=O)NO)ccc2CN1C(=O)C1CCOCC1 [(S)-3-ethyl-N-hydroxy-4-(tetrahydro-2H-pyran-4-carbonyl)-2,3,4,5-tetrahydrobenzo[f][1,4]oxazepine-8-carboxamide] | ≥ 7.00
C[C@H]1COc2cc(C(=O)NO)ccc2CN1C(=O)C1CCS(=O)(=O)CC1 [(S)-4-(1,1-dioxidotetrahydro-2H-thiopyran-4-carbonyl)-N-hydroxy-3-methyl-2,3,4,5-tetrahydrobenzo[f][1,4]oxazepine-8-carboxamide] | ≥ 7.00
C[C@H]1COc2cc(C(=O)NO)ccc2CN1C(=O)C1CS(=O)(=O)C1 [(S)-4-(1,1-dioxidothietane-3-carbonyl)-N-hydroxy-3-methyl-2,3,4,5-tetrahydrobenzo[f][1,4]oxazepine-8-carboxamide] | ≥ 7.00
CC(=O)N1CCC(C(=O)N2Cc3ccc(C(=O)NO)cc3OC[C@@H]2C)CC1 [(S)-4-(1-acetylpiperidine-4-carbonyl)-N-hydroxy-3-methyl-2,3,4,5-tetrahydrobenzo[f][1,4]oxazepine-8-carboxamide] | ≥ 7.00
C[C@H]1COc2cc(C(=O)NO)ccc2CN1C(=O)C1CCN(C=O)CC1 [(S)-4-(1-formylpiperidine-4-carbonyl)-N-hydroxy-3-methyl-2,3,4,5-tetrahydrobenzo[f][1,4]oxazepine-8-carboxamide] | ≥ 7.00
C[C@H]1COc2cc(C(=O)NO)ccc2CN1C(=O)c1nc2ccccc2[nH]1 [(S)-4-(1H-benzo[d]imidazole-2-carbonyl)-N-hydroxy-3-methyl-2,3,4,5-tetrahydrobenzo[f][1,4]oxazepine-8-carboxamide] | ≥ 7.00
CC1(C)C[C@@H]1C(=O)N1CCOc2cc(C(=O)NO)ccc2C1 [(S)-4-(2,2-dimethylcyclopropane-1-carbonyl)-N-hydroxy-2,3,4,5-tetrahydrobenzo[f][1,4]oxazepine-8-carboxamide] | 6.30 to 7.00
C[C@H]1COc2cc(C(=O)NO)ccc2CN1C(=O)C(C)(C)c1ccc(F)cc1 [(S)-4-(2-(4-fluorophenyl)-2-methylpropanoyl)-N-hydroxy-3-methyl-2,3,4,5-tetrahydrobenzo[f][1,4]oxazepine-8-carboxamide] | ≥ 7.00
C[C@H]1COc2cc(C(=O)NO)ccc2CN1C(=O)CCOc1ccc(F)cc1 [(S)-4-(3-(4-fluorophenoxy)propanoyl)-N-hydroxy-3-methyl-2,3,4,5-tetrahydrobenzo[f][1,4]oxazepine-8-carboxamide] | ≥ 7.00
C[C@H]1COc2cc(C(=O)NO)ccc2CN1C(=O)C(C)(C)Cc1ccc(F)cc1 [(S)-4-(3-(4-fluorophenyl)-2,2-dimethylpropanoyl)-N-hydroxy-3-methyl-2,3,4,5-tetrahydrobenzo[f][1,4]oxazepine-8-carboxamide] | ≥ 7.00
C[C@H]1COc2cc(C(=O)NO)ccc2CN1C(=O)C1CC(OCc2ccccc2)C1 (stereo partly drawn) [(S)-4-(3-(benzyloxy)cyclobutane-1-carbonyl)-N-hydroxy-3-methyl-2,3,4,5-tetrahydrobenzo[f][1,4]oxazepine-8-carboxamide] | ≥ 7.00
CCC1(C(=O)N2Cc3ccc(C(=O)NO)cc3OC[C@@H]2C)COC1 [(S)-4-(3-ethyloxetane-3-carbonyl)-N-hydroxy-3-methyl-2,3,4,5-tetrahydrobenzo[f][1,4]oxazepine-8-carboxamide] | ≥ 7.00
C[C@H]1COc2cc(C(=O)NO)ccc2CN1C(=O)c1ccc(F)cc1 [(S)-4-(4-fluorobenzoyl)-N-hydroxy-3-methyl-2,3,4,5-tetrahydrobenzo[f][1,4]oxazepine-8-carboxamide] | ≥ 7.00

— US11891365B2, “3-alkyl-4-amido-bicyclic [4,5,0] hydroxamic acids as HDAC inhibitors” (Valo Health, Inc., priority 2015, dated 2024)
